Source: PubChem BioAssay (NCI)
Values joined by “and” are separate entries in the source; they are usually repeats but may differ in a detail not shown here. Identical values can stand only once.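 Step 1: Grow cells in 96-well plates. Step 2: Expose to compound for 48 hours at 5 concentrations. Step 3: Interpolate endpoints linearly; if unreached, use highest concentration. GI50 = concentration required for 50% inhibition of growth. TGI is the concentration that stops growth completely.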

Key:
Experiment in all cases: growth of human tumour cells (NCI), 48 h
HS 578T breast = tested on: HS 578T breast
UO-31 renal = tested on: UO-31 renal
T-47D breast = tested on: T-47D breast
KM12 colon = tested on: KM12 colon
MDA-MB-231 breast = tested on: MDA-MB-231 breast
SW-620 colon = tested on: SW-620 colon
NCI/ADR-RES ovarian = tested on: NCI/ADR-RES ovarian
SK-MEL-2 melanoma = tested on: SK-MEL-2 melanoma
IGROV1 ovarian = tested on: IGROV1 ovarian
SN12C renal = tested on: SN12C renal

Row | SMILES | GI50 (HS 578T breast) | TGI (HS 578T breast) | GI50 (UO-31 renal) | TGI (UO-31 renal) | GI50 (T-47D breast) | TGI (T-47D breast) | GI50 (KM12 colon) | TGI (KM12 colon) | GI50 (MDA-MB-231 breast) | TGI (MDA-MB-231 breast) | GI50 (SW-620 colon) | TGI (SW-620 colon) | GI50 (NCI/ADR-RES ovarian) | TGI (NCI/ADR-RES ovarian) | GI50 (SK-MEL-2 melanoma) | TGI (SK-MEL-2 melanoma) | GI50 (IGROV1 ovarian) | TGI (IGROV1 ovarian) | TGI (SN12C renal) | GI50 (SN12C renal)
1 | COC(=O)[C@]12CC[C@@H](C)[C@H](C)[C@@H]1C1=CC[C@@H]3[C@@](C)(CC#N)C4=C(C[C@@]3(C)[C@]1(C)CC2)OC[C@]4(C)C=O | 6 µM | 52.3 µM | 3.07 µM | 39.5 µM | 2.77 µM | 16.1 µM | 6.46 µM | 62.9 µM | 3.34 µM | 18.5 µM | 4.16 µM | 30.6 µM | 4.26 µM | 38.9 µM | 4.31 µM | 18 µM | 5.28 µM | > 100 µM |  | 
2 | CCn1ncc(N=O)c1N |  | > 100 µM |  | > 100 µM |  | > 100 µM |  | > 100 µM |  |  |  | > 100 µM |  | > 100 µM |  | > 100 µM |  | > 100 µM | > 100 µM | 
3 | Fc1ccc(N=C2C=CC(=Nc3ccc(F)cc3)c3ccccc32)cc1 |  |  |  | > 100 µM |  |  |  |  |  |  |  | > 100 µM |  |  |  | > 100 µM |  | > 100 µM | > 100 µM | 
4 | O=C1c2ccc3c4c(ccc(c24)C(=O)N1CCNCc1ccccc1)C(=O)N(CCNCc1ccccc1)C3=O | 1.83 µM | 5.27 µM |  |  | 1.64 µM | 3.57 µM | 1.69 µM | 3.31 µM | 2.31 µM | 6.61 µM | 0.306 µM | 1.37 µM | 1.81 µM | 4.94 µM | 2.23 µM | 5.81 µM | 1.72 µM | 4.27 µM | 3.05 µM | 1.63 µM
5 | CN1C2(c3ccccc3)C(C(=O)c3ccccc3)=C(C(=O)c3ccccc3)C1(c1ccccc1)c1c(-c3ccccc3)sc(-c3ccccc3)c12 |  |  |  | > 100 µM |  |  |  | > 100 µM |  |  |  | > 100 µM |  |  |  |  |  | > 100 µM | > 100 µM | 
6 | CSC1=Nc2ccccc2N=C(c2ccccc2)C1 |  |  |  | > 100 µM |  |  |  | > 100 µM |  |  |  | 32.6 µM |  |  |  | > 100 µM |  | > 100 µM | > 100 µM | 
7 | Cc1cc(Cl)cc2c1NC(=O)C2(O)C(C(=O)c1ccccc1)c1ccccc1 (stereo unspecified) |  |  | 67.6 µM and 27.3 µM | > 100 µM and 48.4 µM |  |  |  | > 100 µM |  |  |  | > 100 µM |  |  |  | > 100 µM |  | 83 µM | > 100 µM and 38.6 µM | > 100 µM and 14.9 µM
8 | COC1C(=O)CCC2(CO2)C1(O)C1(C)OC1CC=C(C)C (stereo unspecified) |  | > 100 µM |  | > 100 µM |  | > 100 µM |  | > 100 µM |  | > 100 µM |  | > 100 µM |  |  |  | > 100 µM |  | > 100 µM | > 100 µM | 
9 | COc1cc(CC(=O)O)c([N+](=O)[O-])cc1OC |  |  |  | > 100 µM |  |  |  | > 100 µM |  |  |  | > 100 µM |  |  |  | > 100 µM |  | > 100 µM | > 100 µM | 
10 | CC(=O)O[C@@H]1CC[C@@]2(C)C(=O)C34C[C@@]5(C)C([C@@H](C)CCCC(C)C)CCC5(C)[C@](O)(O3)C(=O)[C@H]4C2C1(C)C (stereo partly specified) |  |  |  | 26 µM |  |  |  | 24 µM |  |  |  | 24.5 µM |  |  |  | 37 µM |  | 31.6 µM | 26.7 µM | 
11 | [CH3][Hg]/[N]=C(/N)NC#N |  |  | 14.7 µM | 28 µM |  |  | 16.5 µM | 30 µM |  |  | 2.23 µM | 5.28 µM |  |  | 3.65 µM | 26.7 µM | 18.9 µM | 36.6 µM | 28.5 µM | 14 µM
12 | COC(=O)Nc1nc2ccc(C(=O)c3ccc(F)cc3)cc2[nH]1 | 0.146 µM | 0.502 µM | 2.29 µM | > 100 µM | 0.338 µM | > 100 µM |  |  | 0.563 µM | 13.6 µM | 0.0922 µM | > 100 µM | 0.108 µM | 0.562 µM | 4.14 µM | > 49.8 µM | 0.513 µM | > 66.1 µM | > 100 µM | 0.841 µM
13 | N#CCCN(c1ccc(C=O)cc1)S(=O)(=O)c1ccccc1 |  |  |  | > 100 µM |  |  |  | > 100 µM |  |  |  | > 100 µM |  |  |  | > 100 µM |  | > 100 µM | > 100 µM | 
14 | COc1ccc([C@@H]2OC(=O)C3C2C(=O)O[C@H]3c2ccc(OC)cc2)cc1 (stereo partly specified) |  |  |  | > 100 µM |  |  |  | > 100 µM |  |  |  | > 100 µM |  |  |  | > 100 µM |  | > 100 µM | > 100 µM | 
15 | Nc1c(C(=O)Nc2cccc(C(F)(F)F)c2)sc2nc3c(cc12)CCCCCC3 | 3.25 µM | 9.92 µM | 2.18 µM | 8.57 µM | 1.35 µM | 6.2 µM | 4.08 µM | 23.5 µM | 3.09 µM | 10.6 µM | 3.75 µM | 21.2 µM | 2.69 µM | 10.9 µM | 4.35 µM | 18.2 µM |  |  | 13 µM | 3.15 µM
16 | CC1[C@@H]2CC=C3[C@H]4CCC5Cc6nc7c(nc6C[C@@]5(C)C4CC(=O)[C@]32CO[C@]12OC(C)(C)CC2O)CC1CC[C@@H]2C3=C[C@H]4O[C@@]5(O[C@@](C)(CO)C[C@@H]5O)C(C)[C@@]4(O)[C@]3(C)[C@@H](O)CC2[C@]1(C)C7 (stereo partly specified) | 0.000112 µM | 0.00137 µM |  |  | 0.246 µM |  | 0.00188 µM and 0.000966 µM | 0.0788 µM and 0.0848 µM | 0.00121 µM | 0.284 µM | 0.000982 µM and 0.00204 µM | 0.0262 µM and 0.0526 µM |  | 0.561 µM and > 3.65 µM | 0.0011 µM and 0.00208 µM | 0.0242 µM and 0.0699 µM | 0.00399 µM and 0.0052 µM |  | 0.906 µM and > 3.65 µM | 0.295 µM
17 | COC(=O)c1c2c(c(C)[n+]([O-])c1C)C(=O)C(NCc1ccc(O)cc1)=CC2=O | 2.3 µM | 6.98 µM | 1.53 µM | 3.06 µM |  |  | 1.7 µM | 4.1 µM | 1.38 µM | 4.34 µM | 0.934 µM | 2.72 µM | 2.2 µM | 6.37 µM | 1.79 µM | 3.72 µM | 1.59 µM | 3.78 µM | 2.56 µM | 1.23 µM
18 | C[C@]12CCc3nn(-c4ccccc4)nc3C1CC[C@@H]1C2CC[C@]2(C)C(=O)CCC12 (stereo partly specified) |  |  |  | > 100 µM |  |  |  | > 100 µM |  |  |  | > 100 µM |  |  |  | > 100 µM |  | > 100 µM | > 100 µM | 
19 | CCOC(=O)C(=O)C(C#N)c1ccc(Cl)cc1 (stereo unspecified) |  |  |  | > 100 µM |  |  |  |  |  |  |  | > 100 µM |  |  |  | > 100 µM |  | > 100 µM | > 100 µM | 
20 | O=C(CC(=O)c1cccc([N+](=O)[O-])c1)C(=O)Nc1ccccc1 |  |  |  | > 100 µM |  |  |  | > 100 µM |  |  |  | > 100 µM |  |  |  | > 100 µM |  | > 100 µM | > 100 µM | 
21 | CC(=O)Nc1ccc(C2=N/C(=C\c3ccc(Cl)cc3)C(=O)O2)cc1 |  |  |  | 73.9 µM |  |  |  | > 100 µM |  |  |  | 22.8 µM |  |  |  | > 100 µM |  | > 100 µM | 61.5 µM | 
